Test results as given in ChEMBL document CHEMBL3991601, “The target landscape of clinical kinase drugs” (Science, 2017).
Activity calls are given as the source filed them. Rule as the data show it, for most assays here: actives have a measured Kd and inactives only a lower limit.

Key:
[1] = biological target: T1, Serine/threonine-protein kinase ULK3 (Homo sapiens, UniProt Q6PHR2)
T1 sequence (Q6PHR2 whole entry): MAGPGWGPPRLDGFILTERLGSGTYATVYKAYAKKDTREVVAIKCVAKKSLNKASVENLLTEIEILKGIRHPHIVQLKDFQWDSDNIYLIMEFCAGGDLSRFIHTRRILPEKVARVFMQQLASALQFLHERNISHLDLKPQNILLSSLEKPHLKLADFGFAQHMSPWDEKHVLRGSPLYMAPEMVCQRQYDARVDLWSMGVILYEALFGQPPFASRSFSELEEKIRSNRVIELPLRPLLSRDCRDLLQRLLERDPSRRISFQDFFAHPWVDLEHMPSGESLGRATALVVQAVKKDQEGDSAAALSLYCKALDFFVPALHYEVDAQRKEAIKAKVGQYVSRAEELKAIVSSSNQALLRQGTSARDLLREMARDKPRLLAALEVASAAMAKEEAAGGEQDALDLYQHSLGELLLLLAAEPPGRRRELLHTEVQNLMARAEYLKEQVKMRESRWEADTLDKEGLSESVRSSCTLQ

[2] = biological target: T2, Ribosyldihydronicotinamide dehydrogenase [quinone] (Homo sapiens, UniProt P16083)
T2 sequence (P16083 whole entry): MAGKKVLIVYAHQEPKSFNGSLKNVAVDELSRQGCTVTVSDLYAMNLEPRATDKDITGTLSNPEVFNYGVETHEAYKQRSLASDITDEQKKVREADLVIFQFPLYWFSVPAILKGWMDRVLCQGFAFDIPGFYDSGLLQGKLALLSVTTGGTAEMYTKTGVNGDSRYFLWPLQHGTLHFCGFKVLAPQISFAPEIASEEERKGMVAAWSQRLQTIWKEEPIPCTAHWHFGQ

[3] = biological target: Calcium/calmodulin-dependent protein kinase type II subunit gamma (Homo sapiens, UniProt Q13555)
Chain of Calcium/calmodulin-dependent protein kinase type II subunit gamma (Q13555 whole entry): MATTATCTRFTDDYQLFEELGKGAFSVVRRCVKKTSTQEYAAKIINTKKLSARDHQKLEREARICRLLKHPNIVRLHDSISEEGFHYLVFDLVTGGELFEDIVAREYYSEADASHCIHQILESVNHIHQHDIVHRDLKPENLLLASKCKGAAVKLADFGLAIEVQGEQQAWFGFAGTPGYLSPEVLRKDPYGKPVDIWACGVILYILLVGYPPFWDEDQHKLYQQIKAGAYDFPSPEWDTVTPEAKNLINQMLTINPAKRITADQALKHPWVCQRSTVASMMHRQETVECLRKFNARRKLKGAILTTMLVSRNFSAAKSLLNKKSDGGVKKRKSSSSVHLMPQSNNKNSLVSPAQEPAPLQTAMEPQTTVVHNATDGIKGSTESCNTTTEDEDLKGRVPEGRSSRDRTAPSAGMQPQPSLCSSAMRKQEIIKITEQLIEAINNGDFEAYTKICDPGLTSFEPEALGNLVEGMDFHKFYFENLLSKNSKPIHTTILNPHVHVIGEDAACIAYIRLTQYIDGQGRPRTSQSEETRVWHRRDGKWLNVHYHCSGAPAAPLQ

[4] = biological target: T3, MAP kinase-activated protein kinase 5 (Homo sapiens, UniProt Q8IW41)
T3 sequence (Q8IW41 whole entry): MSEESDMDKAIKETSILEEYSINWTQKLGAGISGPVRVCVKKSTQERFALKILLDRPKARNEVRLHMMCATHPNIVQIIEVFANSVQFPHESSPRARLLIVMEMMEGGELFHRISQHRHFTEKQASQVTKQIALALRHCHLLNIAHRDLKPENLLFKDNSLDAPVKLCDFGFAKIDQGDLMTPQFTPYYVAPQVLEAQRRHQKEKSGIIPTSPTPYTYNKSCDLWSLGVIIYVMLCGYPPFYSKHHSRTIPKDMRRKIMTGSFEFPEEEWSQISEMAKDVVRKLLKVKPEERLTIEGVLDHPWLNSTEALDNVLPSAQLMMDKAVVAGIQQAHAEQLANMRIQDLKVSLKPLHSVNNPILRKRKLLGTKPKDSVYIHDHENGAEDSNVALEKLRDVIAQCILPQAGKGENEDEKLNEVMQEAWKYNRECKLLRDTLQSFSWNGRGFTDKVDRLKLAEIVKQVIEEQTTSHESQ

[5] = biological target: Mitogen-activated protein kinase kinase kinase 4 (Homo sapiens, UniProt Q9Y6R4)
[6] = biological target: T4, Serine/threonine-protein kinase Nek9 (Homo sapiens, UniProt Q8TD19)
T4 sequence (Q8TD19 whole entry): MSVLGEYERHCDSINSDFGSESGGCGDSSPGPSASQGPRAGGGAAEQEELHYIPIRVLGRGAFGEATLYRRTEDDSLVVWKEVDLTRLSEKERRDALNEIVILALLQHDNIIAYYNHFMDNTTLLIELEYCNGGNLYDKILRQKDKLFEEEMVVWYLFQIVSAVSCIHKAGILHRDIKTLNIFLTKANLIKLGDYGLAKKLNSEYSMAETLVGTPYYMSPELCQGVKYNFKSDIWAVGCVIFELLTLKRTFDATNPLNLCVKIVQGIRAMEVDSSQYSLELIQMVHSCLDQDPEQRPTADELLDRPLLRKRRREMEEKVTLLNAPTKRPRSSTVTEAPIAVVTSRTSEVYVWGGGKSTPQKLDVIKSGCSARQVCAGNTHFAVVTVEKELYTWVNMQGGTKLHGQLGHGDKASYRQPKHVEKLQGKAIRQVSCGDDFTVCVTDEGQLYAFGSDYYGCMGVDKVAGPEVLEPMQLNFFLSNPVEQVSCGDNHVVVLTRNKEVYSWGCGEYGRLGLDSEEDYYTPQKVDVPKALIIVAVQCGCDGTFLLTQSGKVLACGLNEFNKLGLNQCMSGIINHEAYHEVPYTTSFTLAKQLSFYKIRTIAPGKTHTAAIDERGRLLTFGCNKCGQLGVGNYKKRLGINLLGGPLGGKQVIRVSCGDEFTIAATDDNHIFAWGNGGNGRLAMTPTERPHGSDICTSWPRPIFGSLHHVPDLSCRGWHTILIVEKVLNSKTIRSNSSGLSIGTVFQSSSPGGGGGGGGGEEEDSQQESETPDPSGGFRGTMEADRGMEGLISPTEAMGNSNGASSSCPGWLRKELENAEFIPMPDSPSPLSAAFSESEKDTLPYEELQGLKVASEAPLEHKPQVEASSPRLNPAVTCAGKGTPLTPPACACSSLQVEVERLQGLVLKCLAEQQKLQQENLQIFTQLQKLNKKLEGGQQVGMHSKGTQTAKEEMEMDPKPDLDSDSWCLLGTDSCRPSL

[7] = biological target: Insulin-like growth factor 1 receptor (Homo sapiens, UniProt P08069)
Chain of Insulin-like growth factor 1 receptor (P08069 31-736 limits assumed): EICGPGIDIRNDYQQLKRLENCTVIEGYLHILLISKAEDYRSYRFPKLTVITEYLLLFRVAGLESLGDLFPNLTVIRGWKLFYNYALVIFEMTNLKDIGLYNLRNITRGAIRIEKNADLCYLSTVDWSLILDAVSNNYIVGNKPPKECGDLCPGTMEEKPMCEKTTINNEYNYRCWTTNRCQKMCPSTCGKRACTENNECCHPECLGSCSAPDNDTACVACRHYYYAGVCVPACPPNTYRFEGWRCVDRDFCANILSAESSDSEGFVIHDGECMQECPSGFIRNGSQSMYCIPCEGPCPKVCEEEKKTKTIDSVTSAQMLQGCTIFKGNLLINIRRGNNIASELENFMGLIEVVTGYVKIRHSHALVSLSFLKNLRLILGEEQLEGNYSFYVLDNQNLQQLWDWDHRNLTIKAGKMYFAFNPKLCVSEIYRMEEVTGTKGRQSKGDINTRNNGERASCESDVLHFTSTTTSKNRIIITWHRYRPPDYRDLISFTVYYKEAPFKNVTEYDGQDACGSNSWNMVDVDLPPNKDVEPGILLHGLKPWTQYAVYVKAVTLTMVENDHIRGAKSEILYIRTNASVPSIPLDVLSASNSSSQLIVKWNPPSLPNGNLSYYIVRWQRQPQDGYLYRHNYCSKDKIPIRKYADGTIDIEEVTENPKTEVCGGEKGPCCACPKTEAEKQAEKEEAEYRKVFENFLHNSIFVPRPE
Chain of Insulin-like growth factor 1 receptor (P08069 741-1367 limits assumed): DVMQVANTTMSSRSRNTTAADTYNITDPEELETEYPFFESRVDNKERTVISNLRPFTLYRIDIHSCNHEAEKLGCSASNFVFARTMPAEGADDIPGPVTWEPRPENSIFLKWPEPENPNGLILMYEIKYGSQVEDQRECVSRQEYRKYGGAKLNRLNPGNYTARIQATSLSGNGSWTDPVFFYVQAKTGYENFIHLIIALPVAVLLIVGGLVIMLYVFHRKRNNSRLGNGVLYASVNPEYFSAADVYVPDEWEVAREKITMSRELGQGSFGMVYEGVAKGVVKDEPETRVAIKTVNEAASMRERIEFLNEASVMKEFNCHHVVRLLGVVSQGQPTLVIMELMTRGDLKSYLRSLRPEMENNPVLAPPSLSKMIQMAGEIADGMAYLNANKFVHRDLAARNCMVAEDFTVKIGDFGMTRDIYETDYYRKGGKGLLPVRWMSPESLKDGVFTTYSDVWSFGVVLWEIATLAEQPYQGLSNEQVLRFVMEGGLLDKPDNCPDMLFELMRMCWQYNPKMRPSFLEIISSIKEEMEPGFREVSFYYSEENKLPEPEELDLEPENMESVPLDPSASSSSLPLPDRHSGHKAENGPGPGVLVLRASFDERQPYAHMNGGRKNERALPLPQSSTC

Insulin receptor = Insulin receptor (Homo sapiens, UniProt P06213)
Chain of Insulin receptor (P06213 28-758 limits assumed): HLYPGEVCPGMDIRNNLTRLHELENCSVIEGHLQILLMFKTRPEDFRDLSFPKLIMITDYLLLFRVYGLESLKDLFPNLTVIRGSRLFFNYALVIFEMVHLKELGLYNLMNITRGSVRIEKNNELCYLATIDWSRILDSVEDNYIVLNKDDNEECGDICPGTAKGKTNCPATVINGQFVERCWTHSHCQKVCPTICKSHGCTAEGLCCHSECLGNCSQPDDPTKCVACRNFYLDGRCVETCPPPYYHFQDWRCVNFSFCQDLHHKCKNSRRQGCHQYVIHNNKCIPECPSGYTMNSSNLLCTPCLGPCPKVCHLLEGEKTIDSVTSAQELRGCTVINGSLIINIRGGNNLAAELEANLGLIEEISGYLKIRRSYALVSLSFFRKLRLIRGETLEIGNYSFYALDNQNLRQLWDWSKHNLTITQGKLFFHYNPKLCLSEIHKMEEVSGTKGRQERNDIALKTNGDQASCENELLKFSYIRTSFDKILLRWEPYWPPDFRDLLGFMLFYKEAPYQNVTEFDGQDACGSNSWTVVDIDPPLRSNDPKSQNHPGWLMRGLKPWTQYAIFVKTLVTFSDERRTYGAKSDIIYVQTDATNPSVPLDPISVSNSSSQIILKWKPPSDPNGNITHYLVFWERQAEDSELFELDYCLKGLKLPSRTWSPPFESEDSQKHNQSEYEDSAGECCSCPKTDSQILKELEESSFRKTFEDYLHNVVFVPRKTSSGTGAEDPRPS
Chain of Insulin receptor (P06213 763-1382 limits assumed): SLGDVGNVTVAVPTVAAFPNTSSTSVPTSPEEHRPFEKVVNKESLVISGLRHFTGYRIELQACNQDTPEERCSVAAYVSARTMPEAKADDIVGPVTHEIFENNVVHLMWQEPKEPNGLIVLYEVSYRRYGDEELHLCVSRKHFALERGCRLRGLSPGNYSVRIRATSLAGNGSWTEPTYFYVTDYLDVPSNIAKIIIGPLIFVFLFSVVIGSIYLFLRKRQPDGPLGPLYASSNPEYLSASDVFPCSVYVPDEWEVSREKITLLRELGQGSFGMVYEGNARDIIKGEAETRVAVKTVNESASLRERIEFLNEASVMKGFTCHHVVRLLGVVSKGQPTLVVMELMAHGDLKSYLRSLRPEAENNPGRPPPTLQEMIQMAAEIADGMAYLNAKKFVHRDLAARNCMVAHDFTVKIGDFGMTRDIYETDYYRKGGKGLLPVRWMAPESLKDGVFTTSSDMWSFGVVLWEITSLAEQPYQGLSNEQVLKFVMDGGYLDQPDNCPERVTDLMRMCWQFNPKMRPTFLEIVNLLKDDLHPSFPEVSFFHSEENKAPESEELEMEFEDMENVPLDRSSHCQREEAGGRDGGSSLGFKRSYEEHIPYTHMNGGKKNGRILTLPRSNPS

Myosin-14 = Myosin-14 (Homo sapiens, UniProt Q7Z406)
[8] = biological target: Cyclin-dependent kinase 1 (Homo sapiens, UniProt P06493)
Chain of Cyclin-dependent kinase 1 (P06493 whole entry): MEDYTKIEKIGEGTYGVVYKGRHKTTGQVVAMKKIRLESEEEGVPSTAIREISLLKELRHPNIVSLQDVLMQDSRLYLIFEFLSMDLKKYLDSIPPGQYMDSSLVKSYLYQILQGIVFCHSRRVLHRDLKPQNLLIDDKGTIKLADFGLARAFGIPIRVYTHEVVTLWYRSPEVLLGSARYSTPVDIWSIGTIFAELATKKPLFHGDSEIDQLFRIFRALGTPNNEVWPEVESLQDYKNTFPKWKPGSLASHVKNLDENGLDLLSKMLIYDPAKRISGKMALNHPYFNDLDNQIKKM

[9] = biological target: Tyrosine-protein kinase ABL1 (Homo sapiens, UniProt P00519)
Chain of Tyrosine-protein kinase ABL1 (P00519 whole entry): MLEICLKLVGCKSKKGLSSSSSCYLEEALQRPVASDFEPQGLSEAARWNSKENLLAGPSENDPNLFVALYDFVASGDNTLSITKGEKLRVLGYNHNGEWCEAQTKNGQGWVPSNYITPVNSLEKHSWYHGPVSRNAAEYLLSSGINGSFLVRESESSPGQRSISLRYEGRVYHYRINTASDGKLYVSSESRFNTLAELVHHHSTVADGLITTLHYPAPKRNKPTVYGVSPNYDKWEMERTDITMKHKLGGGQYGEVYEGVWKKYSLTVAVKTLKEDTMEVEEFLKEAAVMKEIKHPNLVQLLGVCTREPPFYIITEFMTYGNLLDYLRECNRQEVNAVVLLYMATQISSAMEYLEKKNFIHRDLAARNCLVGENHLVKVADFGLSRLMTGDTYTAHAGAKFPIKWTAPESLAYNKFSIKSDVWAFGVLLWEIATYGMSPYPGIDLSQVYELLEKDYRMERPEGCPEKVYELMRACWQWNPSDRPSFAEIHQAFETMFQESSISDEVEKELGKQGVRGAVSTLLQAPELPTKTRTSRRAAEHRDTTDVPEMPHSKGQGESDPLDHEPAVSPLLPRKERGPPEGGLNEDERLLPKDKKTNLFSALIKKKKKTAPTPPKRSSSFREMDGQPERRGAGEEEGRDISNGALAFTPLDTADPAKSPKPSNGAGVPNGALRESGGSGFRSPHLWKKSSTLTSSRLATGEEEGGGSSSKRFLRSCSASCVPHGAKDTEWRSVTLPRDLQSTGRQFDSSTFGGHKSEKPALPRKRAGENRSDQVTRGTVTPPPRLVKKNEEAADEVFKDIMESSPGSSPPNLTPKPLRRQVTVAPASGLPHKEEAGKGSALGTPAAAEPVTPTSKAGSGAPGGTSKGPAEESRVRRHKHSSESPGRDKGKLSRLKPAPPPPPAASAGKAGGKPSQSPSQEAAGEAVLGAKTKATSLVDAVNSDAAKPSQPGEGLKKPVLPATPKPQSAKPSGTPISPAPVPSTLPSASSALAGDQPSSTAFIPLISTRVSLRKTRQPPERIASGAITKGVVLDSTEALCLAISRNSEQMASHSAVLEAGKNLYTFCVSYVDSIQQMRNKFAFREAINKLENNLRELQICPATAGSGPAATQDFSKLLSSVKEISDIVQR

[10] = biological target: Serine/threonine-protein kinase SIK2 (Homo sapiens, UniProt Q9H0K1)
Also: in the data inactive means no Kd found up to 30 µM.

For `COc1cc(Nc2ncc(F)c(Nc3ccc4c(n3)N(COP(=O)(O)O)C(=O)C(C)(C)O4)n2)cc(OC)c1OC` [FOSTAMATINIB], the Kd [1] was > 30 µM (inactive), the Kd [2] was > 30 µM (inactive) and the Kd [3] was > 30 µM (inactive). For the same molecule, the Kd [4] was > 30 µM (inactive), the Kd [5] was > 30 µM (inactive) and the Kd [6] was 0.041 µM (active). The Kd [7] was > 30 µM (inactive), the Kd (Insulin receptor) was > 30 µM (inactive) and the Kd (Myosin-14) was > 30 µM (inactive). The Kd [8] was > 30 µM (inactive), the Kd [9] was > 30 µM (inactive) and the Kd [10] was > 30 µM (inactive).
With `Cc1c(Cn2c(C)nc3c(C(=O)O)cc(N4CCOCC4)cc32)cccc1C(F)(F)F` [GSK-2636771] the Kd [1] was > 30 µM (inactive), the Kd [2] was > 30 µM (inactive) and the Kd [3] was > 30 µM (inactive). For the same molecule, the Kd [4] was > 30 µM (inactive), the Kd [5] was > 30 µM (inactive) and the Kd [6] was > 30 µM (inactive). For the same molecule, the Kd [7] was > 30 µM (inactive), the Kd (Insulin receptor) was > 30 µM (inactive) and the Kd (Myosin-14) was > 30 µM (inactive). For the same molecule, the Kd [8] was > 30 µM (inactive), the Kd [9] was > 30 µM (inactive) and the Kd [10] was > 30 µM (inactive).
`C#Cc1cccc(Nc2ncnc3cc4c(cc23)OCCOCCOCCO4)c1` [ICOTINIB] was tested, and the Kd [1] was > 30 µM (inactive), the Kd [2] was > 30 µM (inactive) and the Kd [3] was > 30 µM (inactive). The Kd [4] was > 30 µM (inactive), the Kd [5] was > 30 µM (inactive) and the Kd [6] was > 30 µM (inactive). The Kd [7] was > 30 µM (inactive), the Kd (Insulin receptor) was > 30 µM (inactive) and the Kd (Myosin-14) was > 30 µM (inactive). The Kd [8] was > 30 µM (inactive), the Kd [9] was > 30 µM (inactive) and the Kd [10] was > 30 µM (inactive).
For `COc1cc2ncnc3c2cc1OCCCCCN(C)Cc1ccc(Br)cc1N3` [JNJ-26483327], the Kd [1] was > 30 µM (inactive), the Kd [2] was > 30 µM (inactive) and the Kd [3] was > 30 µM (inactive). For the same molecule, the Kd [4] was > 30 µM (inactive), the Kd [5] was > 30 µM (inactive) and the Kd [6] was > 30 µM (inactive). The Kd [7] was > 30 µM (inactive), the Kd (Insulin receptor) was > 30 µM (inactive) and the Kd (Myosin-14) was > 30 µM (inactive). For the same molecule, the Kd [8] was > 30 µM (inactive), the Kd [9] was > 30 µM (inactive) and the Kd [10] was > 30 µM (inactive).
For `Cc1ccc(C(=O)Nc2ccc(Oc3cc4cnn(C)c4cc3-c3cn[nH]c3)c(F)c2)c(=O)n1-c1ccc(F)cc1` [MERESTINIB], the Kd [1] was > 30 µM (inactive), the Kd [2] was > 30 µM (inactive) and the Kd [3] was > 30 µM (inactive). The Kd [4] was > 30 µM (inactive), the Kd [5] was > 30 µM (inactive) and the Kd [6] was > 30 µM (inactive). The Kd [7] was > 30 µM (inactive), the Kd (Insulin receptor) was > 30 µM (inactive) and the Kd (Myosin-14) was > 30 µM (inactive). For the same molecule, the Kd [8] was > 30 µM (inactive), the Kd [9] was > 30 µM (inactive) and the Kd [10] was > 30 µM (inactive).
With `O=C(NOC[C@H](O)CO)c1ccc(F)c(F)c1Nc1ccc(I)cc1F` [MIRDAMETINIB] the Kd [1] was > 30 µM (inactive), the Kd [2] was > 30 µM (inactive) and the Kd [3] was > 30 µM (inactive). For the same molecule, the Kd [4] was > 30 µM (inactive), the Kd [5] was > 30 µM (inactive) and the Kd [6] was > 30 µM (inactive). The Kd [7] was > 30 µM (inactive), the Kd (Insulin receptor) was > 30 µM (inactive) and the Kd (Myosin-14) was > 30 µM (inactive). For the same molecule, the Kd [8] was > 30 µM (inactive), the Kd [9] was > 30 µM (inactive) and the Kd [10] was > 30 µM (inactive).
